The target in one data set is T1, RORα (Homo sapiens, UniProt P35398).
T1 sequence (P35398 272-510 limits assumed): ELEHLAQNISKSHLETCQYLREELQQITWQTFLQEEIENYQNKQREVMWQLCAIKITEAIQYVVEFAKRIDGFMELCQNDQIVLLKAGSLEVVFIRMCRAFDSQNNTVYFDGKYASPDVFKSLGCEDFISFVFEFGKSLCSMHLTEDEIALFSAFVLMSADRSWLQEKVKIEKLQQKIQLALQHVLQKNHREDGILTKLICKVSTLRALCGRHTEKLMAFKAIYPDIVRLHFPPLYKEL
Briefly: Gal4 DBD-NR LBD cotransfection assay, RORα. Format: cell-based. The conditions noted are these: data not shown.

For a further data set, the target named is T2, LXRα (Homo sapiens, UniProt Q13133).
T2 sequence (Q13133 209-447 limits assumed): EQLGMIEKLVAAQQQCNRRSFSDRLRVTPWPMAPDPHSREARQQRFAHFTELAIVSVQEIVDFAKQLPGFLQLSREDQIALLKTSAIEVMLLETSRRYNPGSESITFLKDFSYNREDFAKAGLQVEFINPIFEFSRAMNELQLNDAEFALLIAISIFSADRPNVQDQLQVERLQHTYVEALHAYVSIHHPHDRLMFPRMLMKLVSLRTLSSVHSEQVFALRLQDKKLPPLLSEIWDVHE
Briefly: Gal4 DBD-NR LBD cotransfection assay, LXRα. Type of data set: cell-based. The conditions noted are these: data not shown.

Another data set concerns the target T3, FXR (Homo sapiens, UniProt Q96RI1).
T3 sequence (Q96RI1 262-486 limits assumed): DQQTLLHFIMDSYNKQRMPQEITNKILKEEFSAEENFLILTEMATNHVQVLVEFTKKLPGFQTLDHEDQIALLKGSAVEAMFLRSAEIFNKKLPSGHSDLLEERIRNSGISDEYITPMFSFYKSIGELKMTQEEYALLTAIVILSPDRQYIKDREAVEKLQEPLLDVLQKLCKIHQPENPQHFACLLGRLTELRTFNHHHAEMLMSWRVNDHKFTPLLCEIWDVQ
In words: Gal4 DBD-NR LBD cotransfection assay, FXR. Type of data set: cell-based. To be noted: data not shown.

Another data set in a line: Solubility. Format: physicochemical. The conditions noted are these: 20hr.
The target of the next data set is p450 2C9 (Homo sapiens, UniProt P11712). Briefly: p450 inhibition 2C9. Format: in vitro ADME. The conditions noted are these: 10 µM drug.
Sequence of p450 2C9 (P11712 whole entry): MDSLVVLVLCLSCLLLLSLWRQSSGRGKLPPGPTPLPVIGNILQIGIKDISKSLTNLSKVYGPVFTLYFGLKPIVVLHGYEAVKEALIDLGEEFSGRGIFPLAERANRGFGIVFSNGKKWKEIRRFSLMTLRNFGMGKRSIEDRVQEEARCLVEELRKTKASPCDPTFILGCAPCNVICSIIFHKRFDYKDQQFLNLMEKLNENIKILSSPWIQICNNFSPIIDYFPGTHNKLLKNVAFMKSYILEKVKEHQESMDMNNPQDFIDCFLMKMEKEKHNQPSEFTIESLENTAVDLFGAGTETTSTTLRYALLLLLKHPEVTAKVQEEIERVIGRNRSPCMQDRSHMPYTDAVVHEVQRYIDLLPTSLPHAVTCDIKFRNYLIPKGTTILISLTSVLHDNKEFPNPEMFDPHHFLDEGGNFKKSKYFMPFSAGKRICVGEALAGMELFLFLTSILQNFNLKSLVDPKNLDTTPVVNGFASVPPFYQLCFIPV
For another data set, the target named is p450 3A4 (Homo sapiens, UniProt P08684). In words: p450 inhibition 3A4. Format: in vitro ADME. To be noted: 10 µM drug.
Sequence of p450 3A4 (P08684 whole entry): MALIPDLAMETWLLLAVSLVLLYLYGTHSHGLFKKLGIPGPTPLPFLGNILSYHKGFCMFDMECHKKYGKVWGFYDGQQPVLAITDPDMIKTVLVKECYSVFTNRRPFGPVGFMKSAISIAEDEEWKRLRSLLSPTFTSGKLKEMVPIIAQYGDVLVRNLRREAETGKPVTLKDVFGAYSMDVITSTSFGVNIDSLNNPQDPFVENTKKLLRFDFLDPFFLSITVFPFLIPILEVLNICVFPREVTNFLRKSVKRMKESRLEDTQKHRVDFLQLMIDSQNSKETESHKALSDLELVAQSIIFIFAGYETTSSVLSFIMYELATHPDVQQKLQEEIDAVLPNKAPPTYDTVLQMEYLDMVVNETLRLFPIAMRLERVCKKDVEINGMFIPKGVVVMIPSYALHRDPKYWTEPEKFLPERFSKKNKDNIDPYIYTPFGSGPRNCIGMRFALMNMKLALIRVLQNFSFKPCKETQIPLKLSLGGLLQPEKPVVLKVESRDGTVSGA
Data set [1] in a line: CNS exposure: plasma and brain levels in mice. The conditions noted are these: t = 6h.
A further data set addresses T4, GST-RORγ (Homo sapiens, UniProt P51449).
T4 sequence (P51449 269-508 limits assumed): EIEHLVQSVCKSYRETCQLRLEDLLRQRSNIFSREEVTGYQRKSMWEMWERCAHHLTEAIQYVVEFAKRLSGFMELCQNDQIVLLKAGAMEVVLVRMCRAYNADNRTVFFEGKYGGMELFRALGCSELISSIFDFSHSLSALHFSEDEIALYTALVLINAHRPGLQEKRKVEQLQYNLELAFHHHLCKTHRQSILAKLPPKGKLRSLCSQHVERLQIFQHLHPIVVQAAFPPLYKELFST
Briefly: Radioligand binding. To be noted: versus 6p.

The values below come from paper PMC3534870 (Bioorganic & medicinal chemistry letters, 2012).

Turning to `COc1cc(O)c(C(CC(=O)N2CC(C)CC(C)C2)c2ccc3c(c2)OCO3)c(OC)c1` (centres unmarked) [Compound 1], at RORα, the “activity on RORα” value is “did not show any activity”. Also, on LXRα, the “activity on LXRα” value is on record as “did not show any activity”. In addition, at FXR, the “activity on FXR” value was “did not show any activity”. Besides, the “Solubility pH 7.4” value in “Solubility” (100 µM solution shaken in PBS pH 7.4, room temperature) is given as “low to modest”. The “Solubility pH 5.0” value in the data set “Solubility” (100 µM solution shaken in Sodium Citrate Buffer pH 5.0, room temperature) is listed as “low to modest”. Further, the “p450 % inhibition 2C9” value at p450 2C9 is given as “high”. Moreover, at p450 3A4, the “p450 % inhibition 3A4” value is recorded as “high”. Besides, the “[Plasma]” value in data set [1] (10 mg/kg IP in 10:10:80 DMSO:Tween:water) is recorded as “limited”. In addition, the “b.p. (%) brain penetration” value in data set [1] (10 mg/kg IP) was “good”.

With `COc1ccc(C(CC(=O)NCc2ccccc2)c2c(O)cc(OC)cc2OC)cc1` (centres unmarked) [Compound 6k], the “RORγ activity in words (binding assay)” value on GST-RORγ is recorded as “loss of activity”.

Turning to `COc1ccc(C(CC(=O)N2CCOCC2)c2c(O)cc(OC)cc2OC)cc1` (centres unmarked) [Compound 6l], the “RORγ activity in words (binding assay)” value on GST-RORγ is “loss of activity”.

For the compound `COc1ccc(C(CC(=O)N2CCCCC2)c2c(O)cc(OC)cc2OC)cc1` (centres unmarked) [Compound 6m], the “RORγ activity in words (binding assay)” value on GST-RORγ is listed as “loss of activity”.

In the case of `COc1ccc(C(CC(=O)NC2CCCC2)c2c(O)cc(OC)cc2OC)cc1` (centres unmarked) [Compound 6n], on GST-RORγ, the “RORγ activity in words (binding assay)” value is “loss of activity”.

For the compound `COc1ccc(C(CC(=O)N2CCCC2)c2c(O)cc(OC)cc2OC)cc1` (centres unmarked) [Compound 6o], the “RORγ activity in words (binding assay)” value at GST-RORγ was “loss of activity”.
